# In ChEMBL document CHEMBL1201862, “PubChem BioAssay data set” (2004):
#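 A five-concentration, 48-hour dose response in 96-well plates underlies each endpoint, interpolated linearly between surrounding concentrations. GI50 is the concentration that inhibits growth by half.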 Calls of active or inactive are those of the source. Rule as the data show it: active = GI50 up to about 1.1 µM and inactive = higher.
# Key:
# Assay in all cases: inhibition of tumour cell growth, NCI panel, 48 h
# OVCAR-3 = test system: OVCAR-3
# SW-620 = test system: SW-620
# MCF7 = test system: MCF7
# SNB-19 = test system: SNB-19
# SK-OV-3 = test system: SK-OV-3
# HT-29 = test system: HT-29
# NCI/ADR-RES = test system: NCI/ADR-RES
# BT-549 = test system: BT-549
# SK-MEL-5 = test system: SK-MEL-5
# M14 = test system: M14
# CCRF-CEM = test system: CCRF-CEM
# DU-145 = test system: DU-145
# HCT-15 = test system: HCT-15
# SN12C = test system: SN12C
# NCI-H23 = test system: NCI-H23
# OVCAR-8 = test system: OVCAR-8
# IGROV-1 = test system: IGROV-1
# SK-MEL-2 = test system: SK-MEL-2
# SK-MEL-28 = test system: SK-MEL-28
# UACC-62 = test system: UACC-62
# U-251 = test system: U-251
# SF-539 = test system: SF-539
# HCT-116 = test system: HCT-116
# RPMI-8226 = test system: RPMI-8226
# SF-268 = test system: SF-268
# KM12 = test system: KM12
# HOP-62 = test system: HOP-62
# SF-295 = test system: SF-295
# OVCAR-5 = test system: OVCAR-5
# 786-0 = test system: 786-0
# NCI-H460 = test system: NCI-H460
# SNB-75 = test system: SNB-75
# MOLT-4 = test system: MOLT-4
# A498 = test system: A498
# HL-60 = test system: HL-60
# SR = test system: SR
# TK-10 = test system: TK-10
# ACHN = test system: ACHN
# COLO 205 = test system: COLO 205
# CAKI-1 = test system: CAKI-1
# UACC-257 = test system: UACC-257
# MDA-N = test system: MDA-N
# MDA-MB-231 = test system: MDA-MB-231
# A549 = test system: A549
# LOX IMVI = test system: LOX IMVI
# PC-3 = test system: PC-3
# EKVX = test system: EKVX
# MDA-MB-435 = test system: MDA-MB-435
# UO-31 = test system: UO-31
# OVCAR-4 = test system: OVCAR-4
# NCI-H522 = test system: NCI-H522
# K562 = test system: K562
# Malme-3M = test system: Malme-3M
# HCC 2998 = test system: HCC 2998
smiles,measurement,setting,value
COC(=O)c1cc(S(=O)(=O)NC2=NNC(C)CN2)c(S)cc1Cl (centres undefined),GI50,OVCAR-3,38.3 µM (inactive)
same,GI50,SW-620,42.3 µM (inactive)
same,GI50,MCF7,42 µM (inactive)
same,GI50,SNB-19,85.1 µM (inactive)
same,GI50,SK-OV-3,> 100 µM (inactive)
same,GI50,HT-29,42.7 µM (inactive)
same,GI50,NCI/ADR-RES,39.8 µM (inactive)
same,GI50,BT-549,> 100 µM (inactive)
same,GI50,SK-MEL-5,26.4 µM (inactive)
same,GI50,M14,31.5 µM (inactive)
same,GI50,CCRF-CEM,84.1 µM (inactive)
same,GI50,DU-145,78.9 µM (inactive)
same,GI50,HCT-15,37.8 µM
same,GI50,SN12C,> 100 µM (inactive)
same,GI50,NCI-H23,44.8 µM (inactive)
same,GI50,OVCAR-8,34.8 µM (inactive)
same,GI50,IGROV-1,29.6 µM (inactive)
same,GI50,SK-MEL-2,26 µM (inactive)
same,GI50,SK-MEL-28,36.7 µM (inactive)
same,GI50,UACC-62,47 µM (inactive)
same,GI50,U-251,37.4 µM (inactive)
same,GI50,SF-539,40.5 µM (inactive)
same,GI50,HCT-116,30.6 µM (inactive)
same,GI50,RPMI-8226,31.2 µM (inactive)
same,GI50,SF-268,13.5 µM (inactive)
same,GI50,KM12,40.4 µM (inactive)
same,GI50,HOP-62,> 100 µM (inactive)
same,GI50,SF-295,54.3 µM (inactive)
same,GI50,OVCAR-5,65.3 µM (inactive)
same,GI50,786-0,56.1 µM (inactive)
same,GI50,NCI-H460,44.8 µM (inactive)
same,GI50,SNB-75,24.7 µM (inactive)
same,GI50,MOLT-4,77.3 µM (inactive)
same,GI50,A498,34.5 µM (inactive)
same,GI50,HL-60,> 100 µM (inactive)
same,GI50,SR,37.5 µM (inactive)
same,GI50,TK-10,> 100 µM (inactive)
same,GI50,ACHN,> 100 µM (inactive)
same,GI50,COLO 205,52.7 µM (inactive)
same,GI50,CAKI-1,> 100 µM (inactive)
same,GI50,UACC-257,> 100 µM (inactive)
same,GI50,MDA-N,35.3 µM (inactive)
same,GI50,MDA-MB-231,> 100 µM (inactive)
same,GI50,A549,30.1 µM (inactive)
same,GI50,LOX IMVI,37.5 µM (inactive)
same,GI50,PC-3,42.8 µM (inactive)
same,GI50,EKVX,90.2 µM (inactive)
same,GI50,MDA-MB-435,40.3 µM (inactive)
same,GI50,UO-31,99.3 µM (inactive)
same,GI50,OVCAR-4,33.9 µM (inactive)
same,GI50,NCI-H522,19.5 µM (inactive)
same,GI50,K562,47.1 µM (inactive)
same,GI50,Malme-3M,24 µM (inactive)
same,GI50,HCC 2998,42.3 µM (inactive)
